Laboratory results published in US20230228744A1, “DRY EYE DISEASE BIOMARKERS AND THEIR USE FOR TREATMENT” (Aldeyra Therapeutics, Inc., priority 2020, published 2023).

Tested on: 4-hydroxynonenal protein adducts (HNE) in tears
Assay: Phase 2/3 (TRANQUILITY) run-in cohort, ELISA of HNE-protein adducts in tears before and after dosing
Type: in vivo, human
Conditions: single doses of 0.25% reproxalap, average of two doses (Day 1 first dose, Day 2 post chamber), n=9; vehicle: increase of 32 pg/mL (n=7)
Experimental: [table] Tear RASP levels will be assessed via MMRM of change from pre to post dose on Day 1 and Day 2, with baseline (pre-dose) scores as a covariate, and dose and test article group as factors. Secondary Endpoints: • Visual analog scale eye dryness score assessed over 24 hours after first dose on Day 1, and over 90 minutes in CAE® (Key Secondary Symptom Endpoint) • Ora Calibra® Ocular Discomfort Scale assessed over 24 hours after first dose on Day 1, and over 90 minutes in CAE® • Ocular Discomfort & 4-Symptom Questionnaire assessed over 24 hours after first dose on Day 1, and before and after CAE® • Ora Calibra® Conjunctival Allergen Challenge Ocular Itching Scale assessed over 24 hours after first dose on Day 1, and before and after CAE® • Schirmer's Test change from baseline before and after the final dose on Day 1 • Change in tear RASP levels before and after Dose 1 and 2 on Day 1 and Dose 3 on Day 2. Conjunctival redness over 24 hours after first dose on Day 1. Visit 2 (Day 1, Baseline and In-Office Dosing) • Medical/Medication Update • Adverse Event Query • Visual Acuity (ETDRS) • Slit Lamp Biomicroscopy • Symptom Questionnaires • a. Ocular Discomfort & 4-Symptom Questionnaire • b. […] Ora Calibra® Conjunctival Allergen Challenge Ocular Itching Scale • Slit Lamp Biomicroscopy • Intraocular Pressure • Dilated Exam • Study Exit Data for the run-in cohort was obtained and analyzed. […]

Structure (SMILES): CC(C)(O)c1nc2ccc(Cl)cc2cc1N [reproxalap, Reproxalap]
- average decline of HNE levels in tears, pre-dose to post-dose: 1018 pg/mL
